In US20060167226A1, “Mutations of voltage-gated ion channnels that allow them to express a voltage-independent phenotype and an improved method to use the same” (Cardiome Pharma Corp., priority 2002, published 2006):

Molecular target: T1, Kv1.5m channels (Homo sapiens, UniProt P22460, P513D/R400Q/R403Q/R409Q)
T1 construct: The coding region of the human gene for Kv1.5 was subcloned into pYC2 (Invitrogen) as an approximately 2 kb HindIII-NotI fragment; expressed in transfected cells; host or cells: Saccharomyces cerevisiae trk1 trk2 strain WΔ3, plasmid pYC2 (GAL1 promoter) or a PGK promoter vector
T1 sequence (P22460 whole entry R400Q/R403Q/R409Q/P513D, the tested form may be a part): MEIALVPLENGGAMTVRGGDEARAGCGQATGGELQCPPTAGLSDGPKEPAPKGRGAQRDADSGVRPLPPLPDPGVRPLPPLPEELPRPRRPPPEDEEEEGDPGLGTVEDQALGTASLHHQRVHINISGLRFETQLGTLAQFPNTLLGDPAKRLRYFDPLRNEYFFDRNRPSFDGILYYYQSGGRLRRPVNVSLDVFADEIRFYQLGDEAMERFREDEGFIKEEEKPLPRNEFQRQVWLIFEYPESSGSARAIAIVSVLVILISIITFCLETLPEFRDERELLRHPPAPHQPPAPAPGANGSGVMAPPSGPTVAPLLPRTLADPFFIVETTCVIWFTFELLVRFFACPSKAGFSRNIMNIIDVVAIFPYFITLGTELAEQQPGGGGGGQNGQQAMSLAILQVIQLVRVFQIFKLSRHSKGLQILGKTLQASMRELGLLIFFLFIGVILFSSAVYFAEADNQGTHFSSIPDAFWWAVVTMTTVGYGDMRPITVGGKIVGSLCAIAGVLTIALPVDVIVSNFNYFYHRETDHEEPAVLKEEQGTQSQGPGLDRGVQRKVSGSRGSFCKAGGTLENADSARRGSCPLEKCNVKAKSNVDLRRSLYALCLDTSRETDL
Experiment: Liquid culture growth assay of trk1 trk2 yeast (WΔ3) expressing Kv1.5m in low potassium media
Format: cell-based
Details: for OD600 (Batch A) / OD600 (Batch B): QPD WΔ3 transformants, liquid culture; for Block of growth of the trk1 trk2 strain expressing Kv1.5m on low potassium: low potassium media
Description: Expression of the cloned inserts is under the control of either the constitutively active PGK promoter or the inducible GAL1 promoter. The latter requires growth in/on media containing galactose as sole carbon source. The screening method involves adding the compound to be screened to the growth media of trk1 trk2 yeast expressing the modified potassium channel and determining whether the yeast's growth is inhibited. The tested compound may be incorporated in liquid or solid growth media or added ectopically to solid growth media.
Our yeast strain, when expressing the mutant Kv1.5 channel, is capable of consistent growth on as little as 0.5 mM potassium. Very few pseudorevertants are capable of growth at this potassium concentration; the vast majority of liquid cultures of the parent strain show absolutely no growth even after more than 24 hours culture. When expressing the mutant Kv1.5 channel, growth is robust and can be blocked by known Kv1.5 channel blockers.
Detailed Description of the Methods Required for a Liquid Culture Media Assay of Kv1.5:
Low salt media was made according to Wickerham, L. J. (1951) (Taxonomy of Yeasts. United States Department of Agriculture Technical Bulletin No. 1029), except that the final potassium phosphate concentration was 0.5 mM.
1. Streak out WΔ3 and Kv1.5m transformed WΔ3 (“Kv1.5m”) culture from frozen stock onto YPD+100 mM K+ and YNB+100 mM K+, ura-agar media plates, respectively, for fresh colonies.
2. The day before doing the drug assay, use the fresh colonies to grow overnight cultures of WΔ3 in liquid YPD+100 mM K+ media, and grow “Kv1.5 m” in liquid YNB+100 mM K+, ura-media.
3. Collect the overnight yeast cells and wash them in sterile distilled water. Resuspend WΔ3 cells in the same volume of LS+100 mM K++ uracil media, and resuspend “Kv1.5 m” cells in the same volume of LS+0.5 mM K+, ura-media. These are the seed cultures for the drug assay.
4. In Falcon 2059 tubes, prepare various concentrations of drugs in LS+0.5 mM K+, ura-media or LS+100 mM K++ uracil media, and also set up solvent controls for each drug concentrations used. Here is an example:
Drug X stock solution (10 mM) is dissoved in 0.5% Tween-20. Final concentrations that we test are 1 mM, 0.1 mM, and 0.01 mM.
Then 250 micro liter of the seed culture of “Kv1.5m” from step 3 is inoculated into each tube.
5. Measure the starting OD600 by taking out 0.1 ml of the sample from each tube and diluting […] for measuring. Grow cultures at […] shaker at 300 rpm.
6. Get 0.1 ml of samples from each tube and measure their OD600 at 2 hr, 4 hr, 6 hr, 8 hr, and 24 hr.

With `Nc1ccncc1` [Compound 4-AP, 4-aminopyridine] the inhibition at 1000 µM (1 mM 4-AP, both batches, read-out: reduction at OD600 (inhibition of yeast growth)) was 50%, the “OD600 (Batch A)” value (LS + 0.5 mM K+ + 0.1 mM 4-AP) was 2.55 and the “OD600 (Batch B)” value (LS + 0.5 mM K+ + 0.1 mM 4-AP) was 2.5. For the same compound, the “OD600 (Batch A)” value (LS + 0.5 mM K+ + 1 mM 4-AP) was 1.11, the “OD600 (Batch B)” value (LS + 0.5 mM K+ + 1 mM 4-AP) was 1.11 and the “Block of growth of the trk1 trk2 strain expressing Kv1.5m on low potassium” value was “can block the Kv1.5m channels”. For the same compound, the “Block of growth of the trk1 trk2 strain expressing Kv1.5m on low potassium” value (listed as 4-aminopyridine) was “could be blocked”.
